Measurements reported in US8940477B2 (priority 2007, dated 2015).
“Also recorded” adds a separate entry of the source.

Target: BoNT/A (Clostridium botulinum, UniProt P0DPI1)
Type: cell-based

BoNT/A, sequence (P0DPI1 2-448 limits assumed): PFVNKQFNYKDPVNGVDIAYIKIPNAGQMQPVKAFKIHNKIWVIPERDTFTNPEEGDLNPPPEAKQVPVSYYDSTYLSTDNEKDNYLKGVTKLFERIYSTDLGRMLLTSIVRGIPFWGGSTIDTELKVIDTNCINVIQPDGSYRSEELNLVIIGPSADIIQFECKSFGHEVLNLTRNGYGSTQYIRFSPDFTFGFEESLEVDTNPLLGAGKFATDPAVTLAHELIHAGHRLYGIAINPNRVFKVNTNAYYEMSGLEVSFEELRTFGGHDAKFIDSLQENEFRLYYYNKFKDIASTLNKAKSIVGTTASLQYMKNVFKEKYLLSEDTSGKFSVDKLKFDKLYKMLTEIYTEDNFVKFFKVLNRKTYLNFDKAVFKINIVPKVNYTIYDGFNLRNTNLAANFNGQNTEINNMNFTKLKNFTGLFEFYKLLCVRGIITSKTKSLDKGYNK
BoNT/A, sequence (P0DPI1 449-1296 limits assumed): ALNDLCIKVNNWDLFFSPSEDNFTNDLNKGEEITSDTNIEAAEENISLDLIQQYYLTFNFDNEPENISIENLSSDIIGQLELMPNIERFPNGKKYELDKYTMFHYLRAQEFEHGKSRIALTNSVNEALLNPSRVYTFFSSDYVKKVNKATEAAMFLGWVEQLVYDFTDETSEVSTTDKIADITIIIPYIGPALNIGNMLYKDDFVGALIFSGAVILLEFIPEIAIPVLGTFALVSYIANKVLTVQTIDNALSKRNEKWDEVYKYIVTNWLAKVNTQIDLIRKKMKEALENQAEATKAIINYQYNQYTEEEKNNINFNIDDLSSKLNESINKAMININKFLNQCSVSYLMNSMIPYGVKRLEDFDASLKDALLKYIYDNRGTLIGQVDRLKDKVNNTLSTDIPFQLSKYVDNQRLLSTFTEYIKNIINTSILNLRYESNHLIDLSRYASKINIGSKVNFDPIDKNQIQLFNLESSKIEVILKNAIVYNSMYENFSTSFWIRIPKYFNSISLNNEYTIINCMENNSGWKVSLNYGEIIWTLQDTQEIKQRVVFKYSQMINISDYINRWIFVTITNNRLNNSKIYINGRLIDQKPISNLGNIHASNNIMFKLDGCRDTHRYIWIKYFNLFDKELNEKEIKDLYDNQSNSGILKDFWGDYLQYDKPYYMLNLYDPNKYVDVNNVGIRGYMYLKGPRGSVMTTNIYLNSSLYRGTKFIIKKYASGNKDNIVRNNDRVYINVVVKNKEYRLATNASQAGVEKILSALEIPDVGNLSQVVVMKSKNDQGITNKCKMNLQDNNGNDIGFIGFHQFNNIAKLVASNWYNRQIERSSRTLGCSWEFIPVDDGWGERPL

CC(=O)O[C@@H]1C[C@H](O)[C@@]23CO[C@@H](O)[C@]1(C)[C@@H]2C[C@@H](O)[C@]1(C)[C@@H]3C(=O)[C@H](OC(C)=O)[C@@]2(C)[C@H](c3ccoc3)C[C@H]3O[C@]321 [Toosendanin]
SNAP25 cleavage in presence of Toosendanin: only full-length SNAP25 was detected; also recorded: protects against BoNT/A induced SNAP25 cleavage
